Test results: patent US20150119267A1, “INHIBITION OF COLONY STIMULATING FACTOR-1 RECEPTOR SIGNALING FOR THE TREATMENT OF BRAIN CANCER” (SLOAN-KETTERING INSTITUTE FOR CANCER RESEARCH, priority 2012, published 2015)
Entries after “also recorded” stand apart in the source; their conditions may differ.

Experiments:
[1] = system: CSF1-dependent cell proliferation; assay: CSF1-dependent cell proliferation; assay type: cell-based; conditions: read-out: inhibits CSF1-dependent cell proliferation
[2] = system: primary bone marrow-derived macrophages (BMDMs); assay: MTT assay, primary BMDMs; assay type: cell-based, mouse; conditions: wild-type C57BL/6 BMDMs in culture, 67 nM
Protocol: (§1) Cell growth rate was determined using the MTT cell proliferation kit (Roche). […] Media was changed every 48 hours. BMDM and CRL-2467 cells were supplemented with 10 ng/ml and 30 ng/ml recombinant mouse CSF-1 respectively unless otherwise indicated. Ten μl of MTT labeling reagent was added to each well and then incubated for 4 hours at 37° C., followed by the addition of 100 μl MTT solubilization reagent overnight. The mixture was gently resuspended and absorbance was measured at 595 nm and 750 nm on a SPECTRAMAX 340 pc plate reader (Molecular Devices).

[3] = system: Ink4a/Arf−/− BMDMs; assay: MTT assay, Nestin-Tv-a;Ink4a/Arf−/− BMDMs; assay type: cell-based, mouse
Protocol: as §1

[4] = system: PDG tumor cell lines; assay: MTT assay, PDG tumor cell lines; assay type: cell-based, mouse; conditions: concentrations up to 6700 nM
Protocol: (§2) For neurosphere formation the cell pellet was resuspended in neurosphere media consisting of mouse NSC Basal Media, NSC proliferation supplements, 10 ng/ml EGF, 20 ng/ml basic-FGF and 1 mg/ml Heparin (Stem Cell Technologies). Fresh media was added every 72 hours for 2 weeks. Primary neurospheres were collected, mechanically disaggregated to a single cell suspension and propagated by serial passaging. To generate glioma cell lines, secondary neurospheres were dissociated to single cell suspensions and cultivated in DMEM+10% FBS as a monolayer (10). Multiple glioma cell lines were derived from independent mice, denoted GBM1-4 herein. Glioma cells were infected with a pBabe-H2B-mCherry construct as described previously (11).
as §1

[5] = system: U-87 MG glioma cell line; assay: MTT assay, U-87 MG; assay type: cell-based, human; conditions: concentrations up to 6700 nM
Protocol: U-87 MG (HTB-14) glioma and CRL-2467 microglia cell lines were purchased from ATCC. The U-87 MG cell line was cultured in DMEM+10% FBS. The CRL-2467 cell line was cultured in DMEM+10% FBS with 30 ng/ml recombinant mouse CSF-1.
as §1

[6] = system: secondary neurospheres from PDG tumors; assay: Secondary neurosphere formation assay; assay type: cell-based, mouse; conditions: concentrations up to 6700 nM
Protocol: as §2
Primary neurospheres were disaggregated to a single cell suspension and 5×10^3 cells were plated in a 6 well plate in neurosphere media in the presence of the CSF-1R inhibitor or DMSO as vehicle. Media was changed every 48 hours. Secondary neurosphere formation was assayed by counting the number of neurospheres obtained after 2 weeks.

[7] = BLZ945 pharmacokinetics, blood-brain barrier; assay type: in vivo, mouse; conditions: single dose 200 mg/kg oral gavage
Protocol: The CSF-1R inhibitor was obtained from the Novartis Institutes for Biomedical Research (Emeryville, Calif.). The drug was formulated in 20% captisol at a concentration of 12.5 mg/ml. The vehicle control, 20% captisol, was processed in the same manner. […] To determine if the drug was able to cross the blood-brain barrier, tumor-bearing mice were treated with a single dose of the CSF-1R inhibitor and sacrificed at different time points post-treatment. Plasma, and the left (contralateral) and right (tumor-bearing) hemispheres of the brain were snap frozen in liquid nitrogen for subsequent analysis of CSF-1R inhibitor concentrations in the tissue. For long-term survival studies, dosing begun at 17 days/2.5 weeks post-injection of RCAS-PDGF-B-HA. For the fixed time-point studies, mice underwent MRI scans at 4-5 weeks post-injection of RCAS-PDGF-B-HA, as previously described (5). To determine tumor volume, regions of interest (ROI) were circumscribed on T2 weighted images and their corresponding area in mm^2 was multiplied by the slice height of 0.7 mm. The total tumor volume is the sum of the ROI volume in each slice, and the volume for the first and last slice in which the tumor appears is halved to approximate the volume of a trapezoid. When tumor volume was in the range of 4.5-40 mm^3, animals were randomly assigned to treatment groups. […]

[8] = system: PDGF-driven gliomas (PDG); assay: Long-term survival trial in PDG mice; assay type: in vivo
[9] = system: CD11b+Gr-1− TAMs; assay: Gene expression profiling of TAMs (microarray); assay type: in vivo, mouse
[10] = system: Mrc1/CD206; assay: Mrc1/CD206 expression in BMDMs (flow cytometry, qRT-PCR); assay type: cell-based, mouse; conditions: in vitro, GCM
Protocol: Media that had been conditioned by glioma tumor cell lines grown in serum free media for 24 hours was passed through 0.22 μm filters to remove cellular debris, and is referred to herein as glioma cell-conditioned media (GCM). GCM was used to stimulate differentiated C57BL/6 WT or β-actin-GFP^+ BMDMs. Control macrophages received fresh media containing 10% FBS and 10 ng/ml recombinant mouse CSF-1.
For mouse primary glioma cultures (containing a mixed population of tumor cells, TAMs, astrocytes etc.; see FIG. 15), 1×10^6 cells were cultivated in DMEM+10% FBS in the presence of the CSF-1R inhibitor or DMSO as vehicle (n=6 independently isolated cultures). For BMDMs, 1×10^6 cells were cultivated in DMEM supplemented with recombinant mouse CSF-1 or GCM in the presence of the CSF-1R inhibitor or DMSO as vehicle. After 48 hours, cells were scraped and washed with FACS buffer. Cells were counted and incubated with 1 μl of Fc Block (BD Pharmingen) per 10^6 cells for at least 15 minutes at 4° C. Cells were then stained with CD45 and CD11b antibodies (Table 7) for 10 minutes at 4° C. and washed with FACS buffer. Cells were fixed and permeabilized using the BD Cytofix/Cytoperm™ kit (BD Biosciences) according to the manufacturer's instructions. Subsequently cells were stained with anti-CD206 antibody (Table 7). […]

With `CNC(=O)c1cc(Oc2ccc3nc(N[C@@H]4CCCC[C@H]4O)sc3c2)ccn1` [BLZ945] the IC50 [1] was 67 nM, the “macrophage (BMDM) survival / viability” value [2] was “significantly decreases the viability; also recorded: blocks macrophage survival” and the BMDM survival [3] was “blocked the survival”. For the same compound, the “proliferation of PDG tumor cell lines” value [4] was “no effect”, the “U-87 MG human glioma cell proliferation” value [5] was “no effect” and the “tumor neurosphere formation (number or size of secondary neurospheres)” value [6] was “no effect; also recorded: does not affect the number or size”. The blood-brain barrier crossing [7] was “able to effectively cross the blood-brain barrier”, the “concentration in contralateral non-tumor bearing hemisphere versus tumor” value ([7]; all time points tested) was “comparable to the level achieved in the tumor” and the tolerability ([8]; 200 mg/kg once daily, up to 26 weeks) was “well-tolerated”. The “asymptomatic mice with no detectable lesions at end stage” value ([8]; 26-week endpoint) was 55.6%, the “cohort still alive at trial endpoint (symptom-free survival)” value ([8]; 26 weeks post-injection, 200 mg/kg once daily from 2.5 weeks) was 64.3% and the tumor grade ([8]; versus vehicle, long-term survival trial) was “significantly less malignant tumors”. For the same compound, the “targets of Egr2 (GSEA)” value ([9]; 7 days treatment) was “downregulated”, the “upregulated differentially expressed genes” value ([9]; BLZ945 versus vehicle, 7 days treatment) was 52 genes and the “classically activated/M1 macrophage markers” value ([9]; with the exception of IL-1 beta) was “not differentially expressed”. The “expression of Mrc1/CD206 in BMDMs” value [10] was “downregulates”.
